Reference: patent EP4818187A1, “COMPOUND AND USE THEREOF” (Ganzhou Hemay Pharmaceutical, Co., Ltd, priority 2023, dated 2025)

Experiments:
[1] = system: Fadu (human pharyngeal squamous cell carcinoma); test: In vitro inhibitory effect against human tumor cells (MTT); type: cell-based; conditions: 72 h, 3 days
Procedure: (§1) Cells were cultured with 5% CO2 at 37°C and saturated humidity until they reached a logarithmic growth phase (usually adherent cells were nearly fully confluent). After removing adherent cells by trypsin/EDTA digestion, the cells were collected for subsequent experiments.
(§2) The cells were inoculated into a 96-well cell culture plate (hereinafter referred to as the 96-well plate) based on the cell count shown in Table 2, cultured overnight to achieve cell adherence, and then, after different concentrations of the test compound were added, further cultured for a total of 3 days. Finally, the total cell protein in the assay wells was assayed by SRB, or the cell viability was assessed by MTT:
(§3) 2.2 Assaying cell viability by MTT: the modification is based on the method in the literature (J. Carmichael, W. DeGraff, A. Gazdar et al., Evaluation of a tetrazolium-based semiautomated colorimetric assay: assessment of chemosensitivity testing. Cancer Research. 1987, 47: 936-942). Specific method: For well-adherent cells: the medium was pipetted out, 100 µL of a basal medium containing 0.5 mg/mL MTT (medium free of fetal bovine serum (FBS) and other additives) was added to each well, and culture was continued for additional 3 h. The MTT-containing basal medium was pipetted out, and 100 µL of DMSO was added to each well to dissolve formazan, followed by assay at a wavelength of 490 nm.
(§4) For poorly-adherent cells: MTT solution was directly added to a concentration of 0.5 mg/mL, culture was continued for additional 3 h, and an equal volume of triple solvent was added to the system to dissolve formazan, followed by assay at a wavelength of 570 nm.
(§5) 2.3: 1-2 mg of β-glucuronidase was weighed, and dissolved in PBS to prepare 2 mg/mL stock solution. Prior to use, the stock solution was diluted with a complete medium to prepare 12.5 µg/mL enzyme working solution. For assay wells requiring the enzyme, 80 µL of the enzyme working solution was added, with the β-glucuronidase at a concentration of 1 µg/well; and for assay wells not requiring the enzyme, 80 µL of the complete medium was added.
(§6) 1-3 mg of the test compound was weighed, and dissolved in DMSO to prepare 20 mM stock solution. The stock solution was diluted in a 3-fold gradient with DMSO, then diluted 100-fold with RPMI1640 basal medium to obtain 10× working solutions, with a total of 8 concentrations. 20 µL of the 10× working solutions were add to the assay wells, with the final volume of each well of 200 µL, and with the DMSO at a concentration of 0.1%.
(§7) 2.4 Calculation of inhibitory activity of compound: the experiment includes a compound test group, a compound-free positive solvent control group (PC), and a negative solvent control group (NC) without cells and the compound. Inhibition rate = [1−(testvalue−NCmean)/(PCmean−NCmean)] × 100% [formula]
(§8) The mean and SD of the inhibition rate were obtained from replicate assay wells. A curve was plotted with the compound concentrations distributed in a logarithmic form as the abscissa and with the mean inhibition rates as the ordinate, and was fitted with a 4-parameter logistic equation. The compound concentration corresponding to 50% inhibition rate on the curve is the IC50 value. Table 2: Culture medium formulation and cell inoculation concentration for human tumor cell lines

[2] = system: NCI-H1975 (human non-small cell lung cancer); test: as above; type: cell-based; conditions: NCI-H1975, 72 h, 3 days
Procedure: as §1, §2, §3, §4, §5, §6, §7, §8

[3] = system: SK-OV-3 (human ovarian cancer); test: as above; type: cell-based; conditions: SK-OV-3, 72 h, SK-OV-3, MTT, 3 days
Procedure: as §1, §2, §3, §4, §5, §6, §7, §8

[4] = system: HCT116 (human colorectal cancer); test: as above; type: cell-based; conditions: HCT-116, 72 h, 3 days
Procedure: as §1, §2, §3, §4, §5, §6, §7, §8

[5] = system: human ovarian cancer SK-OV-3; test: Biological Example 5: in vivo xenograft model of human ovarian cancer SK-OV-3; design: species or system Balb/c-nu nude mice; conditions: SK-OV-3 xenograft, nude mice, 0.8 mg/kg i.v. qw×3
[6] = system: human non-small cell lung cancer NCI-H1975; test: Biological Example 7: in vivo xenograft model of human non-small cell lung cancer NCI-H1975; design: species or system Balb/c-nu nude mice; conditions: nude mice; for Final body weight change (%) / Maximum body weight change (%) / Relative volume RTV (x±S.D.) / T/C (%) / Tumor inhibition rate (%) / Tumor weight (g, x±S.D.): 0.8 mg/kg i.v. qw×3; for Body weight (g, x±S.D.) End: 0.8 mg/kg i.v. qw×3, End; for Body weight (g, x±S.D.) Start: 0.8 mg/kg i.v. qw×3, Start
[7] = system: BxPC-3 (human pancreatic cancer in situ); test: In vitro inhibitory effect against human tumor cells (MTT or SRB); type: cell-based; conditions: BXPC-3, 72 h, BxPC-3, test method printed MTT (head: SRB), 3 days
Procedure: as §1, §2
(§9) 2.1 Assaying total cell protein by SRB: the modification is based on the method in the literature (V. Vichai and K. Kirtikara. Sulforhodamine B colorimetric assay for cytotoxicity screening. Nature Protocols. 2006, 1: 1112-1116). Specific method: the culture medium was pipetted out from the wells, the cells were fixed with 10% trichloroacetic acid for more than 1 h, and trichloroacetic acid was removed; the cells were washed with H2O, and stained with 0.4% SRB for 15-30 min; after excess SRB was removed, the cells were washed with 1% acetic acid; 100 µl of 10 mM tris(trihydroxymethylaminomethane) was added to dissolve the protein-bound SRB, followed by assay at a wavelength of 570 nm.
as §3, §4, §5, §6, §7, §8

[8] = system: 22RV1 (human prostate cancer); test: In vitro inhibitory effect against human tumor cells (SRB); type: cell-based; conditions: 22Rv1, 72 h, 22RV1, SRB, 3 days
Procedure: as §1, §2, §9, §5, §6, §7, §8

[9] = system: HepG2 (human liver cancer cell); test: as above; type: cell-based; conditions: HepG2, 72 h, 3 days
Procedure: as §1, §2, §9, §5, §6, §7, §8

[10] = system: A375 (human malignant melanoma); test: as above; type: cell-based; conditions: A-375, 72 h, 3 days
Procedure: as §1, §2, §9, §5, §6, §7, §8

[11] = system: human non-small cell lung cancer NCI-H1975; test: Biological Example 10: in vivo xenograft model of human non-small cell lung cancer NCI-H1975; design: species or system Balb/c-nu nude mice; conditions: nude mice; for Final body weight change (%) / Maximum body weight change (%) / Relative volume RTV (x±S.D.) / T/C (%) / Tumor inhibition rate (%) / Tumor weight (g, x±S.D.): 0.4 mg/kg i.v. qw×2; for Body weight (g, x±S.D.) End 24d: 0.4 mg/kg i.v. qw×2, End 24d; for Body weight (g, x±S.D.) Start: 0.4 mg/kg i.v. qw×2, Start
[12] = With addition of βGU (1 µg/well)

## CC[C@H](C)[C@@H]([C@@H](CC(=O)N1CCC[C@H]1[C@H](OC)[C@@H](C)C(=O)N[C@H](C)[C@@H](O)c1ccccc1)OC)N(C)C(=O)[C@@H](NC(=O)[C@H](C(C)C)[N+](C)(CC)Cc1ccc(O[C@@H]2O[C@H](C(=O)[O-])[C@@H](O)[C@H](O)[C@H]2O)cc1OCc1cn(CCCOCC(=O)Nc2ccc(-c3ccc(/N=N/c4ccc5c(S(=O)(=O)[O-])cc(S(=O)(=O)[O-])c(N)c5c4O)c(C)c3)cc2C)nn1)C(C)C.[Na+].[Na+] (stereo partly shown) [Example compound 11]
[1]; [12]
  IC50: 0.61 nM
[1]; βGU-free
  IC50: 21 nM
[2]; [12]
  IC50: 1.7 nM
[2]; βGU-free
  IC50: 64 nM
[3]; [12]
  IC50: 1.7 nM
[3]; βGU-free
  IC50: 77 nM
[4]; [12]
  IC50: 1.1 nM
[4]; βGU-free
  IC50: 55 nM
[5]
  Final body weight change (%): 5.7%
  Maximum body weight change (%): 5.7, d21%
  Relative volume RTV (x±S.D.): 0.19±0.23
  T/C (%): 1.7%
  Tumor inhibition rate (%): 99.3%
  Tumor weight (g, x±S.D.): 0.011 ± 0.013 g
  Body weight (g, x±S.D.) End: 25.7 ± 0.8 g
  Body weight (g, x±S.D.) Start: 24.4 ± 0.9 g
[6]
  Final body weight change (%): 6.7%
  Maximum body weight change (%): 6.7, d21%
  Relative volume RTV (x±S.D.): 0.74±0.51
  T/C (%): 5.2%
  Tumor inhibition rate (%): 96.6%
  Tumor weight (g, x±S.D.): 0.061 ± 0.049 g
  Body weight (g, x±S.D.) End: 27.0 ± 2.2 g
  Body weight (g, x±S.D.) Start: 25.3 ± 1.6 g
[7]; [12]
  IC50: 0.4 nM
[7]; βGU-free
  IC50: 15 nM
[8]; [12]
  IC50: 2.2 nM
[8]; βGU-free
  IC50: 63 nM
[9]; [12]
  IC50: 3 nM
[9]; βGU-free
  IC50: 66 nM
[10]; [12]
  IC50: 1.6 nM
[10]; βGU-free
  IC50: 45 nM

## CC[C@H](C)[C@@H]([C@@H](CC(=O)N1CCC[C@H]1[C@H](OC)[C@@H](C)C(=O)N[C@H](C)[C@@H](O)c1ccccc1)OC)N(C)C(=O)[C@@H](NC(=O)[C@H](C(C)C)[N+](C)(CC)Cc1ccc(O[C@@H]2O[C@H](C(=O)[O-])[C@@H](O)[C@H](O)[C@H]2O)cc1OCc1cn(CCCCCC(=O)Nc2ccc(-c3ccc(/N=N/c4ccc5c(S(=O)(=O)[O-])cc(S(=O)(=O)[O-])c(N)c5c4O)c(C)c3)cc2C)nn1)C(C)C.[Na+].[Na+] (stereo partly shown) [Example compound 12]
[1]; [12]
  IC50: 0.21 nM
[1]; βGU-free
  IC50: 36 nM
[2]; [12]
  IC50: 1.2 nM
[2]; βGU-free
  IC50: 74 nM
[3]; [12]
  IC50: 1.1 nM
[3]; βGU-free
  IC50: 37 nM
[4]; [12]
  IC50: 1.6 nM
[4]; βGU-free
  IC50: 84 nM
[5]
  Final body weight change (%): 4.4%
  Maximum body weight change (%): 4.4, d21%
  Relative volume RTV (x±S.D.): 0.07±0.04
  T/C (%): 0.6%
  Tumor inhibition rate (%): 99.7%
  Tumor weight (g, x±S.D.): 0.005 ± 0.001 g
  Body weight (g, x±S.D.) End: 25.1 ± 1.4 g
  Body weight (g, x±S.D.) Start: 24.1 ± 1.2 g
[6]
  Final body weight change (%): 5.8%
  Maximum body weight change (%): 5.8, d21%
  Relative volume RTV (x±S.D.): 0.46±0.35
  T/C (%): 3.2%
  Tumor inhibition rate (%): 97.8%
  Tumor weight (g, x±S.D.): 0.039 ± 0.039 g
  Body weight (g, x±S.D.) End: 25.6 ± 2.4 g
  Body weight (g, x±S.D.) Start: 24.1 ± 1.6 g
[7]; [12]
  IC50: 0.53 nM
[7]; βGU-free
  IC50: 28 nM
[11]
  Final body weight change (%): 5.7%
  Maximum body weight change (%): 5.7, d28%
  Relative volume RTV (x±S.D.): 0.44±0.06
  T/C (%): 8.8%
  Tumor inhibition rate (%): 92.1%
  Tumor weight (g, x±S.D.): 0.086 ± 0.009 g
  Body weight (g, x±S.D.) End 24d: 23.1 ± 0.7 g
  Body weight (g, x±S.D.) Start: 21.8 ± 0.6 g
[8]; [12]
  IC50: 2.5 nM
[8]; βGU-free
  IC50: 77 nM
[9]; [12]
  IC50: 3 nM
[9]; βGU-free
  IC50: 106 nM
[10]; [12]
  IC50: 1 nM
[10]; βGU-free
  IC50: 50 nM

## CC[C@H](C)[C@@H]([C@@H](CC(=O)N1CCC[C@H]1[C@H](OC)[C@@H](C)C(=O)N[C@H](C)[C@@H](O)c1ccccc1)OC)N(C)C(=O)[C@@H](NC(=O)[C@H](C(C)C)[N+](C)(C)Cc1ccc(O[C@@H]2O[C@H](C(=O)[O-])[C@@H](O)[C@H](O)[C@H]2O)cc1OCc1cn(CCCOCC(=O)Nc2ccc(-c3ccc(/N=N/c4ccc5c(S(=O)(=O)[O-])cc(S(=O)(=O)[O-])c(N)c5c4O)c(C)c3)cc2C)nn1)C(C)C.[Na+].[Na+] [Example compound 10]
[1]; [12]
  IC50: 0.64 nM
[1]; βGU-free
  IC50: 14 nM
[2]; [12]
  IC50: 1.9 nM
[2]; βGU-free
  IC50: 50 nM
[3]; [12]
  IC50: 2.7 nM
[3]; βGU-free
  IC50: 74 nM
[4]; [12]
  IC50: 3.4 nM
[4]; βGU-free
  IC50: 87 nM
[5]
  Final body weight change (%): 4.3%
  Maximum body weight change (%): 4.4, d18%
  Relative volume RTV (x±S.D.): 0.37±0.73
  T/C (%): 3.2%
  Tumor inhibition rate (%): 97.9%
  Tumor weight (g, x±S.D.): 0.035 ± 0.077 g
  Body weight (g, x±S.D.) End: 24.7 ± 0.9 g
  Body weight (g, x±S.D.) Start: 23.7 ± 1.1 g
[6]
  Final body weight change (%): 10.2%
  Maximum body weight change (%): 10.2, d21%
  Relative volume RTV (x±S.D.): 0.66±0.23
  T/C (%): 4.6%
  Tumor inhibition rate (%): 97.7%
  Tumor weight (g, x±S.D.): 0.041 ± 0.022 g
  Body weight (g, x±S.D.) End: 26.0 ± 1.0 g
  Body weight (g, x±S.D.) Start: 23.7 ± 1.3 g
[7]; [12]
  IC50: 0.71 nM
[7]; βGU-free
  IC50: 29 nM
[11]
  Final body weight change (%): 4.6%
  Maximum body weight change (%): 4.6, d28%
  Relative volume RTV (x±S.D.): 0.26±0.02
  T/C (%): 5.2%
  Tumor inhibition rate (%): 95.7%
  Tumor weight (g, x±S.D.): 0.047 ± 0.020 g
  Body weight (g, x±S.D.) End 24d: 22.9 ± 0.8 g
  Body weight (g, x±S.D.) Start: 21.9 ± 1.3 g
[8]; [12]
  IC50: 4.4 nM
[8]; βGU-free
  IC50: 94 nM
[9]; [12]
  IC50: 4.1 nM
[9]; βGU-free
  IC50: 93 nM
[10]; [12]
  IC50: 1.4 nM
[10]; βGU-free
  IC50: 33 nM
